Results: PMC10920327, “Prediction of anticancer peptides derived from the true lectins of Phoenix dactylifera and their synergetic effect with mitotane” (Frontiers in Pharmacology, 2024)
Where two headings read alike, the source gives them in different places. No end group written: not given here.

Columns and labels:
HepG2 [1] = assay: cells; conditions: Homo sapiens, HepG2, read-out: IC50 value against HepG2, single agent
Procedure: (§1) Selected human cell lines were cultured in DMEM media with 10% fetal bovine serum (FBS) at 37°C in a CO2 incubator. After 70%–90% confluence, 5 mL of 0.25% trypsin is injected to separate the cells. The cells were counted using trypan blue, and the cell concentration was set at 10^5/mL. A 96-well plate was filled with 100 mL in each well, and the plate was then incubated for 24 h.
(§2) In this study the media in each well was replaced to contain media containing peptides in varying concentrations (U1, U2, U3, U4, U5, U6, U7, U8, and U9). […] Mitotane concentrations ranged from 20 to 600 µM. U3 and U7 were combined with mitotane using two different preparation techniques. Various concentrations of U3 or U7 (40–1500 µM) and mitotane (20–600 µM) were serially diluted. serial dilution of mitotane concentration with 500 µg/mL of U3 or U7 at a fixed concentration Each concentration was repeated four times.

MCF-7 [2] = conditions: 48 h, MTT; for % of cell viability of MCF-7, mitotane alone: mitotane 25 µg/mL alone
Procedure: as §1, §2

MCF-7 [3] = assay: cells; conditions: Homo sapiens, MCF7, read-out: IC50 value against MCF-7, single agent
Procedure: as §1, §2

HepG2 [4] = conditions: for % of cell viability of HepG2, mitotane alone: mitotane 25 µg/mL (80 µM) alone, MTT, 80 µM; for % of cell viability of HepG2, mitotane alone / IC50: 48 h
Procedure: as §1, §2

T47D = assay: MTT cell viability assay, T47D; type: cell-based, human; conditions: Table 3, 48 h, peptide alone
Procedure: MCF-7, T47D (breast cancer), and HepG2 (liver cancer) were donated by the Tissue Culture Unit, Department of Biochemistry, Faculty of Science, King Abdulaziz University. Selected human cell lines were cultured in DMEM media with 10% fetal bovine serum (FBS) at 37°C in a CO2 incubator. After 70%–90% confluence, 5 mL of 0.25% trypsin is injected to separate the cells. The cells were counted using trypan blue, and the cell concentration was set at 10^5/mL. A 96-well plate was filled with […] in each well, and the plate was then incubated for 24 h.
Mitotane, marketed as Lysodren, functions as a steroidogenesis inhibitor and cytostatic antineoplastic drug. It is employed for treating adrenocortical carcinoma and Cushing’s syndrome ([Lo Iacono et al., 2021]). In this study the media in each well was replaced to contain media containing peptides in varying concentrations (U1, U2, U3, U4, U5, U6, U7, U8, and U9). U3 and U7, which have the lowest IC50 values, were chosen to be combined with mitotane. Mitotane concentrations ranged from 20 to 600 µM. U3 and U7 were combined with mitotane using two different preparation techniques. Various concentrations of U3 or U7 (40–1500 µM) and mitotane (20–600 µM) were serially diluted. serial dilution of mitotane concentration with 500 µg/mL of U3 or U7 at a fixed concentration Each concentration was repeated four times.
After 48 h of incubation at 37°C, 100 µL of the 0.5 mg/mL MTT was changed with media containing the medication. At 37°C in the dark, the 96-well plate was incubated for 4 h. After removing the MTT and replacing it with 100 µL of DMSO, the plate was allowed to rest for 15 min. The absorbance of each well in 96 well plate was read at wave length 595 nm by ELISA reader (Bio-RAD microplate reader, Japan).
The treated cells viability and IC50 were expressed as the mean ± standard deviation (SD). The percentage viability was calculated by multiplying the absorbance of treated cells by 100 and dividing the absorbance of untreated cells. The software GraphPad Prism (version 9.0, San Diego, CA, United States) was conducted to calculate the IC50 of peptides, mitotane and their combination.

[5] = mean ± SD, n = 3, read-out: IC50 value against T47D
[6] = range from GraphPad fit, read-out: IC50 range against T47D
[7] = read-out: IC50 range against MCF-7, Table 3, peptide alone, range from GraphPad fit
[8] = read-out: IC50 value against MCF-7, Table 3, peptide alone, mean ± SD, n = 3
[9] = read-out: IC50 value against MCF-7, single agent, Table 4/Figure 2, U3, U7 40–1500 µM or mitotane alone, mean ± SD, n = 3

Row | Compound | IC50 (HepG2 [1]) | % of cell viability of MCF-7, mitotane alone (MCF-7 [2]) | % of cell viability of MCF-7, mitotane alone (MCF-7 [2]; listed as mitotane) | IC50 (MCF-7 [3]) | % of cell viability of HepG2, mitotane alone (HepG2 [4]) | % of cell viability of HepG2, mitotane alone (HepG2 [4]; listed as mitotane) | HepG2 IC50 fold lower than MCF-7 (HepG2 [4]; mitotane alone, HepG2 versus MCF-7) | IC50 (T47D; [5]) | IC50 (T47D; [6]) | IC50 (MCF-7 [2]; [7]) | IC50 (MCF-7 [2]; [8]) | IC50 (MCF-7 [2]; [9]) | IC50 (HepG2 [4])
1 | Clc1ccc(C(c2ccccc2Cl)C(Cl)Cl)cc1 (centres unmarked) [Mitotane] | 40.1 ± 4.69 µM | 59% | 59.05 ± 1.83% | 76.3 ± 5.04 µM | 41% | 41.86 ± 4.54% | 2 fold | – | – | – | – | – | –
2 | AVGSASPTL [Peptide U6] | – | – | – | – | – | – | – | 5900 ± 119 µM | 2520 to 13800 µM | 1360 to 2080 µM | 1680 ± 74.3 µM | – | –
3 | DEEENTHISTR [Peptide U5] | – | – | – | – | – | – | – | 1260 ± 62.5 µM | 866 to 1830 µM | 549 to 1090 µM | 773 ± 44.5 µM | – | –
4 | HDNTAHPAPDS [Peptide U9] | – | – | – | – | – | – | – | 5460 ± 99.3 µM | 2620 to 11400 µM | 351 to 496 µM | 418 ± 15.7 µM | – | –
5 | NCSIHGDIPAY [Peptide U7] | – | – | – | – | – | – | – | 584 ± 30 µM | 485 to 703 µM | 266 to 458 µM | 349 ± 25.3 µM | 554 ± 44.4 µM | 524 ± 35.8 µM
6 | NEEENTHISTR [Peptide U4] | – | – | – | – | – | – | – | 872 ± 23.4 µM | 723 to 1050 µM | 261 to 338 µM | 297 ± 19.7 µM | – | –
7 | NGSIPATWASL [Peptide U3] | – | – | – | – | – | – | – | 518 ± 34.9 µM | 435 to 616 µM | 373 to 617 µM | 480 ± 55 µM | 556 ± 43.5 µM | 561 ± 39.3 µM
8 | NQADSSPSS [Peptide U2] | – | – | – | – | – | – | – | 1510 ± 78 µM | 1140 to 1990 µM | 451 to 1030 µM | 682 ± 32 µM | – | –
9 | SSQGYGSSPSPTPR [Peptide U1] | – | – | – | – | – | – | – | 599 ± 20.4 µM | 458 to 784 µM | 1010 to 2260 µM | 1510 ± 71.7 µM | – | –
10 | TFPCSASNK [Peptide U8] | – | – | – | – | – | – | – | 4710 ± 83.6 µM | 1990 to 11100 µM | 518 to 792 µM | 641 ± 43.8 µM | – | –
